Test results published in PubChem BioAssay (NCI).
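Exposure lasted 48 hours, with cells grown in 96-well plates and compounds tested at five concentrations. At the TGI there is no net growth.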

Experiments:
Assay in all cases: NCI tumour cell line growth inhibition, 48 h
[1] = test system: 786-0 renal
[2] = test system: A549 NSCLC
[3] = test system: ACHN renal
[4] = test system: BT-549 breast
[5] = test system: CAKI-1 renal
[6] = test system: CCRF-CEM leukemia
[7] = test system: COLO 205 colon
[8] = test system: DU-145 prostate
[9] = test system: EKVX NSCLC
[10] = test system: HCC-2998 colon
[11] = test system: HCT-116 colon
[12] = test system: HCT-15 colon
[13] = test system: HL-60(TB) leukemia
[14] = test system: HOP-62 NSCLC
[15] = test system: HOP-92 NSCLC
[16] = test system: HS 578T breast
[17] = test system: HT29 colon
[18] = test system: IGROV1 ovarian
[19] = test system: K-562 leukemia
[20] = test system: KM12 colon
[21] = test system: LOX IMVI melanoma
[22] = test system: M14 melanoma
[23] = test system: MALME-3M melanoma
[24] = test system: MCF7 breast
[25] = test system: MDA-MB-231 breast
[26] = test system: MDA-MB-435
[27] = test system: MDA-N
[28] = test system: MOLT-4 leukemia
[29] = test system: NCI-H226 lung
[30] = test system: NCI-H23 lung
[31] = test system: NCI-H460 lung
[32] = test system: NCI/ADR-RES ovarian
[33] = test system: OVCAR-3 ovarian
[34] = test system: OVCAR-4 ovarian
[35] = test system: OVCAR-5 ovarian
[36] = test system: OVCAR-8 ovarian
[37] = test system: PC-3 prostate
[38] = test system: RPMI-8226 leukemia
[39] = test system: RXF 393 renal
[40] = test system: SF-268 CNS
[41] = test system: SF-295 CNS
[42] = test system: SF-539 CNS
[43] = test system: SK-MEL-2 melanoma
[44] = test system: SK-MEL-28 melanoma
[45] = test system: SK-MEL-5 melanoma
[46] = test system: SK-OV-3 ovarian
[47] = test system: SN12C renal
[48] = test system: SNB-19 CNS
[49] = test system: SNB-75 CNS
[50] = test system: SR leukemia
[51] = test system: SW-620 colon
[52] = test system: T-47D breast
[53] = test system: TK-10 renal
[54] = test system: U251 CNS
[55] = test system: UACC-257 melanoma
[56] = test system: UACC-62 melanoma
[57] = test system: UO-31 renal
[58] = test system: A498 renal
[59] = test system: NCI-H522 lung

CCOP(=O)(OCC)C(C)(CC)NC1=NC(C(F)(F)F)(C(F)(F)F)NC(=O)N1 (stereo not drawn)
TGI [1]: > 100 µM | TGI [2]: > 100 µM | TGI [3]: > 100 µM | TGI [4]: > 100 µM | TGI [5]: > 100 µM | TGI [6]: > 100 µM | TGI [7]: > 100 µM | TGI [8]: > 100 µM | TGI [9]: > 100 µM | TGI [10]: > 100 µM | TGI [11]: > 100 µM | TGI [12]: > 100 µM | TGI [13]: > 100 µM | TGI [14]: > 100 µM | TGI [15]: > 100 µM | TGI [16]: > 100 µM | TGI [17]: > 100 µM | TGI [18]: > 100 µM | TGI [19]: > 100 µM | TGI [20]: > 100 µM | TGI [21]: > 100 µM | TGI [22]: > 100 µM | TGI [23]: > 100 µM | TGI [24]: > 100 µM | TGI [25]: > 100 µM | TGI [26]: > 100 µM | TGI [27]: > 100 µM | TGI [28]: > 100 µM | TGI [29]: > 100 µM | TGI [30]: > 100 µM | TGI [31]: > 100 µM | TGI [32]: > 100 µM | TGI [33]: > 100 µM | TGI [34]: > 100 µM | TGI [35]: > 100 µM | TGI [36]: > 100 µM | TGI [37]: > 100 µM | TGI [38]: > 100 µM | TGI [39]: > 100 µM | TGI [40]: > 100 µM | TGI [41]: > 100 µM | TGI [42]: > 100 µM | TGI [43]: > 100 µM | TGI [44]: > 100 µM | TGI [45]: > 100 µM | TGI [46]: > 100 µM | TGI [47]: > 100 µM | TGI [48]: > 100 µM | TGI [49]: > 100 µM | TGI [50]: > 100 µM | TGI [51]: > 100 µM | TGI [52]: > 100 µM | TGI [53]: > 100 µM | TGI [54]: > 100 µM | TGI [55]: > 100 µM | TGI [56]: > 100 µM | TGI [57]: > 100 µM

CCOP(=O)(OCC)C(C)(C)OC(=O)NC(F)(F)F
TGI [1]: > 100 µM | TGI [2]: > 100 µM | TGI [3]: > 100 µM | TGI [4]: > 100 µM | TGI [5]: > 100 µM | TGI [6]: > 100 µM | TGI [7]: > 100 µM | TGI [8]: > 100 µM | TGI [9]: > 100 µM | TGI [10]: > 100 µM | TGI [11]: > 100 µM | TGI [12]: > 100 µM | TGI [13]: > 100 µM | TGI [14]: > 100 µM | TGI [16]: > 100 µM | TGI [17]: > 100 µM | TGI [18]: > 100 µM | TGI [19]: > 100 µM | TGI [20]: > 100 µM | TGI [21]: > 100 µM | TGI [22]: > 100 µM | TGI [23]: > 100 µM | TGI [24]: > 100 µM | TGI [25]: > 100 µM | TGI [26]: > 100 µM | TGI [27]: > 100 µM | TGI [28]: > 100 µM | TGI [29]: 99.6 µM | TGI [30]: > 100 µM | TGI [31]: > 100 µM | TGI [32]: > 100 µM | TGI [33]: > 100 µM | TGI [34]: > 100 µM | TGI [35]: > 100 µM | TGI [36]: > 100 µM | TGI [37]: > 100 µM | TGI [38]: > 100 µM | TGI [39]: > 100 µM | TGI [40]: > 100 µM | TGI [41]: > 100 µM | TGI [42]: > 100 µM | TGI [43]: > 100 µM | TGI [44]: > 100 µM | TGI [45]: > 100 µM | TGI [46]: > 100 µM | TGI [47]: > 100 µM | TGI [48]: > 100 µM | TGI [49]: > 100 µM | TGI [50]: > 100 µM | TGI [51]: > 100 µM | TGI [52]: > 100 µM | TGI [53]: > 100 µM | TGI [54]: > 100 µM | TGI [55]: > 100 µM | TGI [56]: > 100 µM | TGI [57]: > 100 µM

CCOC(=O)c1ccc(C(=O)/C(C#N)=C2\CCCN2)n1C
TGI [1]: > 100 µM | TGI [58]: > 100 µM | TGI [2]: > 100 µM | TGI [3]: > 100 µM | TGI [4]: > 100 µM | TGI [5]: > 100 µM | TGI [6]: > 100 µM | TGI [7]: > 100 µM | TGI [8]: > 100 µM | TGI [9]: > 100 µM | TGI [10]: > 100 µM | TGI [11]: > 100 µM | TGI [12]: > 100 µM | TGI [13]: > 100 µM | TGI [14]: > 100 µM | TGI [16]: > 100 µM | TGI [17]: > 100 µM | TGI [18]: > 100 µM | TGI [19]: > 100 µM | TGI [20]: > 100 µM | TGI [21]: > 100 µM | TGI [22]: > 100 µM | TGI [23]: > 100 µM | TGI [24]: > 100 µM | TGI [25]: > 100 µM | TGI [26]: > 100 µM | TGI [27]: > 100 µM | TGI [28]: > 100 µM | TGI [29]: > 100 µM | TGI [30]: > 100 µM | TGI [31]: > 100 µM | TGI [59]: > 100 µM | TGI [32]: > 100 µM | TGI [33]: > 100 µM | TGI [34]: > 100 µM | TGI [35]: > 100 µM | TGI [36]: > 100 µM | TGI [37]: > 100 µM | TGI [38]: > 100 µM | TGI [39]: > 100 µM | TGI [40]: > 100 µM | TGI [41]: > 100 µM | TGI [43]: > 100 µM | TGI [44]: > 100 µM | TGI [45]: > 100 µM | TGI [46]: > 100 µM | TGI [47]: > 100 µM | TGI [48]: > 100 µM | TGI [49]: > 100 µM | TGI [50]: > 100 µM | TGI [51]: > 100 µM | TGI [52]: > 100 µM | TGI [54]: > 100 µM | TGI [56]: > 100 µM | TGI [57]: > 100 µM
